Paper PMC5232348, “Molecular and Functional Characterization of Three Odorant-Binding Protein from Periplaneta americana” (PLoS ONE, 2017)
Where a name gives a salt, the structure may show the parent alone. Read-outs that look alike come from different tables or passages of the source.

Legend:
PameOBP2 = PameOBP2 (Periplaneta americana, UniProt B6E9U8); test: Competitive fluorescence binding assay (1-NPN displacement), recombinant PameOBP2
Text: (§1) The PameOBPs were expressed by using Escherichia coli expression system. To generate properly folded protein, the signal peptide predicted by SignalIP 4.1 [18] was removed. The two PameOBPs were amplified by gene special primers (S1 Table) with the cDNA as the template. The purified PCR products were ligated into expression vector pGEX-4T-1 using In-Fusion® HD Cloning Kit (Clontech, Mountain View, CA) according to the manufacturer’s instructions. The recombinant plasmid was transformed into E. coli BL21 (DE3) cells, and then expression and purification was performed according to a previously reported protocol. Recombinant proteins in the supernatant were purified by an affinity chromatography column GSTrap FF (GE Healthcare, Piscataway, NJ, USA). The GST tags were cleaved from recombinant proteins using 400 μL of thrombin (1U/μL) while loaded on GSTrap FF column at 25°C for 10 h and allowed 12 h. After that, the recombinant proteins were eluted with PBS buffer. Finally, the eluted proteins were desalted using HiTrap Desalting (GE Healthcare), lyophilized, and stored at −80°C until use.
(§2) Emission fluorescence spectra were measured on a Hitachi F-4500 fluorescence spectrophotometer following our previous studies. Firstly, dissociation constants of the PameOBPs for N-phenyl-1-naphtylamine (1-NPN) were calculated to determine the suitability of 1-NPN as a fluorescence reporter. […] The binding data were analyzed following our previous studies.

PameOBP1 = PameOBP1 (Periplaneta americana, UniProt B6E9U7); test: Competitive fluorescence binding assay (1-NPN displacement), recombinant PameOBP1
Text: as §1, §2

PameOBP3 = PameOBP3 (Periplaneta americana, UniProt B6E9U9); test: Competitive fluorescence binding assay (1-NPN displacement), recombinant PameOBP3
Text: as §1, §2

[1] = 2 μM 1-NPN as fluorescent reporter, competitor 0.25–2.5 μM or 2–40 μM, read-out: PameOBP2 Ki
[2] = 2 μM 1-NPN as fluorescent reporter, competitor 0.25–2.5 μM or 2–40 μM, read-out: PameOBP1 Ki
[3] = 2 μM 1-NPN as fluorescent reporter, competitor 0.25–2.5 μM or 2–40 μM, read-out: PameOBP3 Ki
[4] = PameOBP2 Ki, 2 μM 1-NPN as fluorescent reporter, competitor 0.25–2.5 μM or 2–40 μM
[5] = PameOBP1 Ki, 2 μM 1-NPN as fluorescent reporter, competitor 0.25–2.5 μM or 2–40 μM
[6] = 2 μM 1-NPN as fluorescent reporter, competitor 0.25–2.5 μM or 2–40 μM, read-out: PameOBP2 IC50
[7] = 2 μM 1-NPN as fluorescent reporter, competitor 0.25–2.5 μM or 2–40 μM, read-out: PameOBP1 IC50

Chain of PameOBP3 (B6E9U9 entry or part of it): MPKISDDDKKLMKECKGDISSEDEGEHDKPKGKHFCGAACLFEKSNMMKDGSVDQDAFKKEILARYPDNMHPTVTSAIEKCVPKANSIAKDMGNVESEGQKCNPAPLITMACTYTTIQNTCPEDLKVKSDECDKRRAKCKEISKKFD
Chain of PameOBP1 (B6E9U7 entry or part of it): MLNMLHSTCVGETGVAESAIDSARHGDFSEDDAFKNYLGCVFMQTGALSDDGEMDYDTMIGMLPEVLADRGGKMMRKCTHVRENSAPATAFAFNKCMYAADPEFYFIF
Chain of PameOBP2 (B6E9U8 entry or part of it): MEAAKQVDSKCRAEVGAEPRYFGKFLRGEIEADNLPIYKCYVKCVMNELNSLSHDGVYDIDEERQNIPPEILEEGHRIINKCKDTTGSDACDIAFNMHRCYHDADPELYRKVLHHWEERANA

Row | Molecule | Ki (PameOBP2; [1]) [µM] | Ki (PameOBP1; [2]) [µM] | Ki (PameOBP3; [3]) [µM] | Ki (PameOBP2; [4]) [µM] | Ki (PameOBP1; [5]) [µM] | Ki (PameOBP3) [µM] | further results
1 | CCCCOC=O [butyl formate] | > 40 | > 40 | > 40 |  |  |  | 
2 | CCCC(=O)CC [3-hexanone] | > 40 | > 40 | > 40 |  |  |  | 
3 | CCCCCCCOC(C)=O [heptyl acetate] | > 40 | > 40 | > 40 |  |  |  | 
4 | O=Cc1ccccc1 [benzaldehyde] |  |  |  | > 40 | > 40 | > 40 | 
5 | CC/C=C\CCOC(=O)CCCCC [Cis-3-hexenyl hexanoate] | > 40 | 22.5 ± 2.6 |  |  |  |  | IC50 (PameOBP2; [6]): > 40 µM; IC50 (PameOBP1; [7]): 24.6 ± 1.9 µM
6 | CCOC(=O)c1ccccc1 [ethyl benzoate] |  |  |  | > 40 | > 40 | > 40 | 
7 | CC(C)=CCC/C(C)=C/CO [geraniol] |  |  |  | > 40 | > 40 | > 40 | 
8 | C=CC(C)(O)CC/C=C(\C)CCC=C(C)C (stereo not drawn) [Trans-nerolidol] | 12.6 ± 0.98 | > 40 |  |  |  |  | IC50 (PameOBP2; [6]): 15.6 ± 1.3 µM; IC50 (PameOBP1; [7]): > 40 µM
9 | CC(=O)c1ccccc1 [acetophenone] | > 40 | > 40 | > 40 |  |  |  | 
10 | C=C1C2CCC(C2)C1(C)C (centres unmarked) [camphene] | > 40 | > 40 | > 40 |  |  |  | 
11 | CCOC(=O)CC [ethyl propionate] | > 40 | > 40 | > 40 |  |  |  | 
12 | CCCCCCCCCCCCC [tridecane] | > 40 | > 40 | > 40 |  |  |  | 
13 | C=CC(C)(O)CCC=C(C)CCC=C(C)C (mixture of isomers) [Nerolidol] | 26.6 ± 2.79 | > 40 |  |  |  |  | IC50 (PameOBP2; [6]): 32.9 ± 4.21 µM; IC50 (PameOBP1; [7]): > 40 µM
14 | CC(C)=CCC/C(C)=C/CC/C(C)=C/CO [Farnesol] | 0.53 ± 0.06 | 0.92 ± 0.06 |  |  |  |  | IC50 (PameOBP2; [6]): 0.65 ± 0.07 µM; IC50 (PameOBP1; [7]): 1.01 ± 0.09 µM
15 | C[C@@H]1CC[C@H]2C(C)(C)[C@H]3C[C@@]12CC[C@@]3(C)O [(+)-cedrol] |  |  |  | > 40 | > 40 | > 40 | 
16 | CCCCCCCCCCCCCCCCCC [octadecane] | > 40 | > 40 | > 40 |  |  |  | 
17 | CCCC(=O)OCC [ethyl butyrate] | > 40 | > 40 | > 40 |  |  |  | 
18 | CCCCCCCCCCCCCC(C)=O [2-pentadecanone] | > 40 | > 40 | > 40 |  |  |  | 
19 | CCCCCCCCCCCCCCCCC [heptadecane] | > 40 | > 40 | > 40 |  |  |  | 
20 | CCCCCCCCCCCC [dodecane] | > 40 | > 40 | > 40 |  |  |  | 
21 | CC(C)c1ccccc1 [cumene] |  |  |  | > 40 | > 40 | > 40 | 
22 | COC(=O)c1ccccc1O [methyl salicylate] |  |  |  | > 40 | > 40 | > 40 | 

Row | Molecule | Ki (PameOBP2; [1]) [µM] | Ki (PameOBP1; [2]) [µM] | Ki (PameOBP3; [3]) [µM] | Ki (PameOBP2; [4]) [µM] | Ki (PameOBP1; [5]) [µM] | Ki (PameOBP3) [µM] | further results
23 | CC(=O)CCC=C(C)C [6-methyl-5-hepten-2-one] |  |  |  | > 40 | > 40 | > 40 | 
24 | CC/C=C\CCOC(C)=O [cis-3-hexenyl acetate] | > 40 | > 40 | > 40 |  |  |  | 
25 | OCc1ccccc1 [benzyl alcohol] |  |  |  | > 40 | > 40 | > 40 | 
26 | CCCCCCCCCC=O [decanal] | > 40 | > 40 | > 40 |  |  |  | 
27 | CCCCCC(C)O (centres unmarked) [2-heptanol] | > 40 | > 40 | > 40 |  |  |  | 
28 | c1ccc2ccccc2c1 [naphthalene] |  |  |  | > 40 | > 40 | > 40 | 
29 | CCCC(O)CC (centres unmarked) [3-hexanol] | > 40 | > 40 | > 40 |  |  |  | 
30 | CCCCCCCCOC(C)=O [octyl acetate] | > 40 | > 40 | > 40 |  |  |  | 
31 | CCCCCCOC(=O)CCC [hexyl butyrate] | > 40 | > 40 | > 40 |  |  |  | 
32 | CC/C=C\CC=O [cis-3-hexenal] | > 40 | > 40 | > 40 |  |  |  | 
33 | CCC/C=C/COC(C)=O [trans-2-hexenyl acetate] | > 40 | > 40 | > 40 |  |  |  | 
34 | CC(=O)OCc1ccccc1 [benzyl acetate] | > 40 | > 40 | > 40 |  |  |  | 
35 | C=C1CC/C=C(\C)CC[C@@H]2[C@@H]1CC2(C)C [beta-caryophyllene] |  |  |  | > 40 | > 40 | > 40 | 
36 | C=CC(C)(O)CCC=C(C)C (centres unmarked) [linalool] |  |  |  | > 40 | > 40 | > 40 | 
37 | CC12CCC(CC1)C(C)(C)O2 [eucalyptol] | > 40 | > 40 | > 40 |  |  |  | 
38 | CC/C=C\CCOC(=O)CCC [cis-3-hexenyl butyrate] | > 40 | > 40 | > 40 |  |  |  | 
39 | CCCCCCO [1-hexanol] | > 40 | > 40 | > 40 |  |  |  | 
40 | Farnesene | 0.52 ± 0.03 | 1.04 ± 0.1 |  |  |  |  | Ki (PameOBP2; 2 μM 1-NPN as fluorescent reporter, competitor 0.25–2.5 μM or 2–40 μM, listed as farnesene, read-out: PameOBP2 Ki): < 2 µM; IC50 (PameOBP2; [6]): 0.64 ± 0.08 µM; Ki (PameOBP1; 2 μM 1-NPN as fluorescent reporter, competitor 0.25–2.5 μM or 2–40 μM, listed as farnesene, read-out: PameOBP1 Ki): < 2 µM; IC50 (PameOBP1; [7]): 1.14 ± 0.12 µM
41 | CC/C=C\CCO [Cis-3-hexenol] |  |  |  | > 40 | > 40 | > 40 | 
42 | OCCc1ccccc1 [phenethyl alcohol] | > 40 | > 40 | > 40 |  |  |  | 
43 | CC(=O)OCCC(C)C [isoamyl acetate] | > 40 | > 40 | > 40 |  |  |  | 
44 | CCC/C=C/C=O [trans-2-hexenal] |  |  |  | > 40 | > 40 | > 40 | 

Row | Molecule | Ki (PameOBP2; [1]) [µM] | Ki (PameOBP1; [2]) [µM] | Ki (PameOBP3; [3]) [µM] | Ki (PameOBP2; [4]) [µM] | Ki (PameOBP1; [5]) [µM] | Ki (PameOBP3) [µM] | further results
45 | CCC/C=C\CO [cis-2-hexen-1-ol] |  |  |  | > 40 | > 40 | > 40 | 
46 | CCCCCCCCC(CO)CCCCCC (centres unmarked) [2-hexyl-1-decanol] | > 40 | > 40 | > 40 |  |  |  | 
47 | CCC/C=C/COC(=O)CCC [trans-2-hexenyl butyrate] | > 40 | > 40 | > 40 |  |  |  | 
48 | CCCCOC(C)=O [butyl acetate] |  |  |  | > 40 | > 40 | > 40 | 
49 | CCCCCCCCCCC [undecane] | > 40 | > 40 | > 40 |  |  |  | 
50 | CC(=O)OC/C=C(\C)CCC=C(C)C [Geranyl acetate] | 32.6 ± 2.95 | > 40 |  |  |  |  | IC50 (PameOBP2; [6]): 40 ± 3.16 µM; IC50 (PameOBP1; [7]): > 40 µM
51 | CCc1ccccc1 [ethylbenzene] |  |  |  | > 40 | > 40 | > 40 | 
52 | CC(=O)/C=C/C1=C(C)CCCC1(C)C [Beta- ionone] |  |  |  | 12.2 ± 0.9 | 14.4 ± 1.6 |  | IC50 (PameOBP2): 15 ± 1.1 µM; IC50 (PameOBP1): 15.8 ± 2.1 µM
53 | CCCCCOC(C)=O [pentyl acetate] | > 40 | > 40 | > 40 |  |  |  | 
54 | CCCCC(C)=O [2-hexanone] |  |  |  | > 40 | > 40 | > 40 | 
55 | CCCCCCCCCCC=O [undecanal] | > 40 | > 40 | > 40 |  |  |  | 
56 | O=CCc1ccccc1 [phenylacetaldehyde] |  |  |  | > 40 | > 40 | > 40 | 
57 | CC1=CC[C@H](C(C)C)C=C1 [alpha-phellandrene] |  |  |  | > 40 | > 40 | > 40 | 
58 | CCCCCC(C)=O [2-heptanone] | > 40 | > 40 | > 40 |  |  |  | 
59 | CCCCCCCCCCCC(C)=O [2-Tridecanone] | 1.23 ± 0.08 | 1.85 ± 0.17 |  |  |  |  | IC50 (PameOBP2; [6]): 1.52 ± 0.16 µM; IC50 (PameOBP1; [7]): 2.02 ± 0.16 µM
60 | c1ccc2[nH]ccc2c1 [indole] |  |  |  | > 40 | > 40 | > 40 | 
61 | CCCCCCCCCOC(C)=O [nonyl acetate] | > 40 | > 40 | > 40 |  |  |  | 
62 | CC(=O)CC/C=C(\C)CCC=C(C)C [Geranylacetone] | 6.97 ± 0.72 | > 40 |  |  |  |  | IC50 (PameOBP2; [6]): 8.62 ± 0.68 µM; IC50 (PameOBP1; [7]): > 40 µM
63 | CCCCCC=O [hexanal] |  |  |  | > 40 | > 40 | > 40 | 
64 | CCCCCCCCCCCCCC [Tetradecane] | 0.96 ± 0.1 |  |  |  |  |  | IC50 (PameOBP2; [6]): 1.19 ± 0.09 µM; IC50 (PameOBP1; [7]): > 40 µM
